Measurements reported in PMC12073177 (Molecules, 2025).

Experiments:
[1] = DPPH radical scavenging assay (antioxidant activity); assay type: biochemical; settings: in methanol, 30 min, absorbance at 540 nm
Experimental: Absorbance was measured at 540 nm. All experiments were conducted in triplicate.

[2] = MTT cell viability assay in RAW 264.7 cells; assay type: cell-based, murine; settings: mouse, RAW 264.7 macrophage cells, RAW 264.7, MTT; for viability at 24 h: tested concentrations up to 40 μM
Experimental: (§1) Absorbance was measured at 570 nm using a microplate reader.
(§2) All experiments were performed in triplicate.

[3] = test system: nitric oxide (NO) production in LPS-stimulated RAW 264.7 cells; test: Nitric oxide production in LPS-stimulated RAW 264.7 cells (Griess reagent); assay type: cell-based, murine; settings: for effect on NO production (result in words): 5, 10, 20 and 40 µM, LPS-stimulated RAW 264.7; for reduction of NO production: 40 µM, relative to the LPS-treated group, LPS 24 h
Experimental: NO levels in the culture supernatants were quantified using the Griess reagent assay, and absorbance was measured at 540 nm.
RAW 264.7 cells were maintained in Dulbecco’s Modified Eagle Medium (DMEM, Sigma-Aldrich, St. Louis, MO, USA) supplemented with 10% heat-inactivated fetal bovine serum (FBS, Invitrogen, Burlington, ON, Canada) and 1% (w/v) antibiotic-antimycotic solution (Invitrogen, Grand Island, NY, USA). The cells were cultured in a humidified incubator at 37 °C under 95% air and 5% CO2 conditions.
The production of NO was quantified by measuring nitrite levels in the culture supernatants using the Griess reagent (1% sulfanilamide, 0.1% N-(1-naphthyl)-ethylenediamine dihydrochloride, and 5% phosphoric acid). […] The cells were then stimulated with 0.5 μg/mL lipopolysaccharide (LPS, Sigma-Aldrich, CA, USA) for 24 h in a total volume of 200 μL. After incubation, 100 μL of culture supernatant was mixed with an equal volume of Griess reagent and incubated at room temperature for 5 min. Sodium nitrite was used as a standard for calibration, and nitrite concentration was determined by measuring absorbance at 540 nm. All experiments were conducted in triplicate.

NLRP3 = NLRP3 ELISA in LPS-stimulated RAW 264.7 cells; assay type: cell-based, murine; settings: for inhibition at 40 µM: Mus musculus, RAW264.7, read-out: NLRP3 inhibition rate; for NLRP3 inhibition (result in words): 40 µM
Experimental: For evaluating the NLRP3 inhibitory activity, the highest concentration of 40 µM was selected, as this concentration had previously been confirmed to maintain cell viability (Section 2.4.1).
To assess NLRP3 inflammasome activation, RAW 264.7 macrophages were seeded at a density of 5 × 10^5 cells/well in 96-well plates. […] The levels of NLRP3 in the culture supernatant were quantified using a commercially available ELISA kit (Lsbio, WA, USA) according to the manufacturer’s protocol. Absorbance was measured at 450 nm, and NLRP3 concentrations were determined using a standard curve, expressed in ng/mL. To ensure statistical accuracy, all experiments were performed in duplicate.

β-secretase (BACE-1) = target: T1, β-secretase (BACE-1) (Homo sapiens, UniProt P56817); test: BACE-1 FRET-based inhibition assay; assay type: biochemical; settings: 60 min at room temperature, mean ± SD, ND = no detectable inhibitory activity
T1 construct: purchased Thermo Fisher Scientific, San Diego, CA, USA
Experimental: The reaction was initiated by adding 10 µL of a 3× BACE-1 enzyme solution. Plates were incubated at room temperature for 60 min in the dark. After incubation, 10 µL of 2.5 mM sodium acetate was added to terminate the reaction. Fluorescence was measured using a multimode plate reader (Multiskan™ GO, Thermo Scientific, Waltham, MA, USA) with an excitation wavelength of 545 nm and an emission wavelength of 585 nm. The IC50 values were determined by plotting relative fluorescence units per hour (RFU/h) against the logarithmic inhibitor concentrations. All experiments were performed in triplicate.

[4] = target: T2, tau protein (tau-BiFC SH-SY5Y cell line) (Homo sapiens, UniProt P10636); test: Tau-BiFC SH-SY5Y anti-tau aggregation assay; assay type: cell-based; settings: 10 μM, 24 h, compared to the control group
T2 construct: split fluorescent protein fragments for BiFC (complementing N- and C-terminal halves); expressed in transfected cells; host or cells: SH-SY5Y
Experimental: Cells were maintained at 37 °C in a humidified incubator with 5% CO2.

RAW 264.7 cells = test: MTT cell viability assay in RAW 264.7 cells; assay type: cell-based, murine; settings: RAW 264.7, MTT, 24 h, 5-40 μM
Experimental: as §1, §2

T1 sequence (P56817 46-501): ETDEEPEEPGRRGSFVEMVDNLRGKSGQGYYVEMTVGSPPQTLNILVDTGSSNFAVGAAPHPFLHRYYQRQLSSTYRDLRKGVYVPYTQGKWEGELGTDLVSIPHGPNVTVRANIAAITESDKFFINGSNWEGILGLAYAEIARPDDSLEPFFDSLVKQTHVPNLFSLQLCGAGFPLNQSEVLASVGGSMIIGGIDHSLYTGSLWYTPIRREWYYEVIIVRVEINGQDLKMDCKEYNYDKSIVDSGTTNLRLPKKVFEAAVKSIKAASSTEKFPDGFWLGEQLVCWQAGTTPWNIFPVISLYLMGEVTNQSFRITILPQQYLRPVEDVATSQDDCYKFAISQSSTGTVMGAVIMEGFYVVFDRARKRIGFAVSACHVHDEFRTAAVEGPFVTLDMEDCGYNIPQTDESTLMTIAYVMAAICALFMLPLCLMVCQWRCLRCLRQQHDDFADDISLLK
T2 sequence (P10636 1-441 isoform P10636-8): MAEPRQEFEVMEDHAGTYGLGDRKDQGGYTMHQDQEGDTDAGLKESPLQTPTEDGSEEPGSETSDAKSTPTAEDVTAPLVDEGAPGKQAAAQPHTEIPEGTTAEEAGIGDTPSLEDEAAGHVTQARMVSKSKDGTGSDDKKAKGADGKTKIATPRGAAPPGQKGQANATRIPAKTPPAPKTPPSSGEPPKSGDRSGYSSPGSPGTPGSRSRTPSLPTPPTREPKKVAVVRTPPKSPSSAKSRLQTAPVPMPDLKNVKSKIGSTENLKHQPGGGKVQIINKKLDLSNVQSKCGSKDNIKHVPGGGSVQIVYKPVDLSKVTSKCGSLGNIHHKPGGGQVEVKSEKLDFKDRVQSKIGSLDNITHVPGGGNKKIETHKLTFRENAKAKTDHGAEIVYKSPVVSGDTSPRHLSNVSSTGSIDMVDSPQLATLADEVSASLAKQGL

| Compound | IC50 [1] [µM] | viability at 24 h [2] [%] | effect on NO production (result in words) [3] | inhibition at 40 µM (NLRP3) [%] | IC50 (β-secretase (BACE-1)) [µM] | reduction of NO production [3] | anti-tau aggregation effect (BiFC fluorescence, result in words) [4] | cytotoxicity (result in words) (RAW 264.7 cells) | BACE-1 IC50 (β-secretase (BACE-1)) | viability at 24 h, 40 µM [2] [%] | NLRP3 inhibition (result in words) (NLRP3) |
| --- | --- | --- | --- | --- | --- | --- | --- | --- | --- | --- | --- |
| NC(CCC(=O)NNc1ccccc1C(F)(F)F)C(=O)O (stereo not drawn) [RA-2CF3, N^5-((2-(triflouromethyl)phenyl)amino)glutamine] | 3 ± 0.03 | > 100 | moderate NO-reducing effect | ≥ 20 | 11.6 ± 14 | – | – | – | – | – | – |
| COc1ccccc1NNC(=O)CC[C@H](N)C(=O)O [RA-2OMe, N^5-((2-methoxyphenyl)amino)glutamine] | 2.81 ± 0.03 | > 100 | concentration-dependent reduction in NO levels | ≥ 20 | 7.97 ± 2.46 | 25~35% | moderate inhibitory effects | – | – | – | – |
| N[C@@H](CCC(=O)NNc1ccc2ccccc2n1)C(=O)O [RA-2Q, N^5-(quinolin-2-ylamino)glutamine] | 9.7 ± 0.32 | – | did not significantly suppress NO production | ≥ 20 | – | – | significant reductions in tau aggregation | no significant reduction in cell survival | no detectable BACE-1 inhibitory activity (ND) | – | – |
| NC(CCC(=O)NNc1cccc(C(F)(F)F)c1)C(=O)O (stereo not drawn) [RA-3CF3, N^5-((3-(triflouromethyl)phenyl)amino)glutamine] | 31.7 ± 14.6 | > 100 | concentration-dependent reduction in NO levels | 10 to 15 | 0.33 ± 0.79 | – | did not show significant anti-tau effects | – | – | – | – |
| NC(CCC(=O)NNc1ccc(OC(F)(F)F)cc1)C(=O)O (stereo not drawn) [RA-4OCF3, N^5-((4-(triflouromethoxy)phenyl)amino)glutamine] | 3.77 ± 0.09 | > 100 | concentration-dependent reduction in NO levels | ≥ 20 | 9.89 ± 13.6 | – | – | – | – | – | – |
| COc1ccc(NNC(=O)CC[C@H](N)C(=O)O)cc1 [RA-4OMe, N^5-((4-methoxyphenyl)amino)glutamine] | 5.49 ± 0.63 | > 100 | concentration-dependent reduction in NO levels | ≥ 20 | 25 ± 5.72 | 25~35% | moderate inhibitory effects | – | – | – | – |
| CN(C)NC(=O)CC[C@H](N)C(=O)O [RA-DMe, N^5-(dimethylamino)glutamine] | 598 | – | moderate NO-reducing effect | – | – | – | did not exhibit significant anti-tau aggregation activity | – | no detectable BACE-1 inhibitory activity (ND) | > 80 | no significant NLRP3-inhibitory effects |
| CC(C)NNC(=O)CC[C@H](N)C(=O)O [RA-IPr, N^5-(Isopropylamino)glutamine] | 2580 ± 359 | – | did not significantly suppress NO production | – | – | – | did not exhibit significant anti-tau aggregation activity | no significant reduction in cell survival | no detectable BACE-1 inhibitory activity (ND) | – | no significant NLRP3-inhibitory effects |
| NC(CCC(=O)NNc1cccc2ccccc12)C(=O)O (stereo not drawn) [RA-NAP] | 1.77 ± 0.12 | – | moderate NO-reducing effect | 10 to 15 | 0.66 ± 1.05 | – | significant reductions in tau aggregation | – | – | > 80 | – |
| N[C@@H](CCC(=O)NNc1ccccn1)C(=O)O [RA-PYD, N^5-(pyridin-2-ylamino)glutamine] | 7.4 ± 3.54 | – | did not significantly suppress NO production | ≥ 20 | 0.32 ± 0.08 | – | significant reductions in tau aggregation | no significant reduction in cell survival | – | – | – |
